Where two headings read alike, the source gives them in different places.
Tested on: IL-2
Experiment: Inhibition of IL-2 production in PHA-activated Jurkat cells (1% FBS), ELISA
Format: cell-based
Conditions: Homo sapiens, read-out: IL-2 current inhibition Jurkat/PHA/1% FBS IC50
Procedure: Jurkat cells were placed in a 96 well plate (0.5 million cells per well in 1% FBS medium), and then a test compound of this invention was added at different concentrations. After 10 minutes, the cells were activated with PHA (final concentration 2.5 μg/mL) and incubated for 20 hours at 37° C. under 5% CO2. The final volume was 200 Following incubation, the cells were centrifuged, and the supernatants collected and stored at −70° C. prior to assaying for IL-2 production. A commercial ELISA kit (IL-2 Eli-pair, Diaclone Research, Besancon, France) was used to detect production of IL-2, from which dose response curves were obtained. The IC50 value was calculated as the concentration at which 50% of maximum IL-2 production after stimulation was inhibited versus a non-stimulation control.

| SMILES | IC50 (activity class) | IC50 (numeric values, unit inferred) |
| --- | --- | --- |
| CC(C)c1sc(-c2cnn(C)c2)nc1-c1ccc(NC(=O)c2ccc(F)cc2F)nc1 [Compound 5, 2,4-Difluoro-N-(5-(5-isopropyl-2-(1-methyl-1H-pyrazol-4-yl)thiazol-4-yl)pyridin-2-yl)benzamide] | > 100 nM | – |
| CC(C)(O)c1sc(-c2cccnc2)cc1-c1ccc(NC(=O)c2c(F)cccc2F)nc1 [Compound 9, 2,6-difluoro-N-(5-(2-(2-hydroxypropan-2-yl)-5-(pyridin-3-yl)thiophen-3-yl)pyridin-2-yl)benzamide] | > 100 nM | – |
| CC(C)(O)c1sc(-c2cccnc2)cc1-c1cnc(NC(=O)c2c(F)cccc2F)cn1 [Compound 12, 2,6-difluoro-N-(5-(2-(2-hydroxypropan-2-yl)-5-(pyridin-3-yl)thiophen-3-yl)pyrazin-2-yl)benzamide] | > 100 nM | – |
| C=C(C)c1sc(-c2cccnc2)cc1-c1cnc(NC(=O)c2c(F)cccc2F)cn1 [Compound 13, 2,6-difluoro-N-(5-(2-(prop-1-en-2-yl)-5-(pyridin-3-yl)thiophen-3-yl)pyrazin-2-yl)benzamide] | 50 to 100 nM | – |
| O=C(Nc1ccc(-c2cc(-c3cccnc3)sc2-c2cccnc2)cc1)c1c(F)cccc1F [Compound 16, N-(4-(2,5-di(pyridin-3-yl)thiophen-3-yl)phenyl)-2,6-difluorobenzamide] | < 50 nM | – |
| Cc1sc(-c2cccnc2)cc1-c1cnc(NC(=O)c2c(F)cccc2F)cn1 [Compound 17, 2,6-difluoro-N-(5-(2-methyl-5-(pyridin-3-yl)thiophen-3-yl)pyrazin-2-yl)benzamide] | < 50 nM | – |
| CC(C)c1sc(-c2cccnc2)cc1-c1cnc(NC(=O)c2c(F)cccc2F)cn1 [Compound T] | < 50 nM | – |
| CC(C)c1sc(-c2cccnc2)nc1-c1ccc(NC(=O)c2ccc(F)cc2F)nc1 [D] | 50 to 100 nM | – |
| Cc1sc(CCc2cccnc2)nc1-c1ccc(NC(=O)c2c(F)cccc2F)nc1 [E] | 50 to 100 nM | – |
| Cc1sc(-c2cnco2)nc1-c1ccc(NC(=O)c2c(F)cccc2F)cc1 [G] | < 50 nM | – |
| Cc1sc(-c2ncc(-c3cccnc3)s2)cc1-c1ccc(NC(=O)c2c(F)cccc2F)nc1 [I] | > 100 nM | – |
| Cc1sc(-c2ncco2)cc1-c1ccc(NC(=O)c2c(F)cccc2F)cc1 [J] | < 50 nM | – |
| Cc1sc(-c2cncn2CCN(C)C)cc1-c1ccc(NC(=O)c2c(F)cccc2F)cc1 [K] | > 100 nM | – |
| CC(=O)c1cc(-c2ccc(NC(=O)c3c(F)cccc3F)cc2)c(C)s1 [L] | > 100 nM | – |
| COC(=O)c1cc(NC(=O)c2c(F)cccc2F)ccc1-c1cc(-c2cccnc2)sc1CO [M] | > 100 nM | – |
| CC(C)(O)c1sc(-c2cccnc2)cc1-c1ccc(NC(=O)c2c(F)cccc2F)cc1 [N] | < 50 nM | – |
| Cc1sc(C(=O)c2ccncc2)cc1-c1ccc(NC(=O)c2c(F)cccc2F)cc1 [P] | < 50 nM | – |

Other lines, results leading:

| IC50 (activity class) | IC50 (numeric values, unit inferred) | SMILES |
| --- | --- | --- |
| – | 10 nM | CCc1sc(-c2cccnc2)nc1-c1ccc(NC(=O)c2cccc(F)c2C)nc1 [Compound A2] |
| – | 16 nM | CCc1sc(-c2ccc(N)nc2)nc1-c1ccc(NC(=O)c2cccc(F)c2C)nc1 [Compound A3] |
| – | 17 nM | Cc1sc(-c2ccc(N)nc2)nc1-c1cnc(NC(=O)c2c(F)cccc2F)cn1 [Compound A4] |
| – | 77 nM | Cc1cccc(F)c1C(=O)Nc1ccc(-c2nc(-c3cnn(C)c3)sc2C)cn1 [Compound A5] |
| – | 21 nM | Cc1cc(-c2nc(-c3ccc(NC(=O)c4cccc(F)c4C)nc3)c(C)s2)no1 [Compound A6] |
| – | 21 nM | CCc1sc(-c2ccc(C)nc2)nc1-c1ccc(NC(=O)c2cccc(F)c2C)nc1 [Compound A7] |
| – | 26 nM | Cc1cccc(F)c1C(=O)Nc1ccc(-c2nc(-c3ccc(N)nc3)sc2C)cn1 [Compound A8] |
| – | 28 nM | CCc1sc(-c2cccnc2C)nc1-c1ccc(NC(=O)c2cccc(F)c2C)nc1 [Compound A9] |
| – | 40 nM | CCc1sc(-c2cnn(C)c2)nc1-c1cnc(NC(=O)c2c(F)cccc2F)cn1 [Compound A10] |
| – | 43 nM | Cc1sc(-c2cnccn2)nc1-c1ccc(NC(=O)c2cccc(F)c2C)nc1 [Compound A11] |
| – | 44 nM | CCc1sc(-c2cnn(C)c2)nc1-c1ccc(C(=O)Nc2c(C)cccc2F)cc1 [Compound A12] |

— patent US8314130B2, “Compounds inclunding substituted pyridines for inflammation and immune-related uses” (Synta Pharmaceuticals Corp., priority 2008, dated 2012)
